Consider 26 compounds from PubChem BioAssay AID330 (DTP/NCI, 2004).

Several values for one entry are separate records, joined by “and”; a condition that tells them apart may be missing. Equal entries are not always repeated. Toxic doses and inconclusive results are not listed.

This test deals with P388 leukemia ip, CD2F1 mice, survival T/C. Nature of the test: NCI In Vivo Anticancer Drug Screen. Data for tumor model P388 Leukemia (intraperitoneal) in CD2F1 (CDF1) mice. As to conditions: endpoint: median survival time, higher = longer survival. In short, it runs like this:
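Mice carrying the transplanted tumor received test compound or vehicle. Survival was recorded in each group, and the value is the treated-group measurement divided by that of the vehicle-treated control group.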

[1] abbreviates: dose: 60.0 mg/kg/injection, schedule: Q01DX005 (ip), vehicle: Klucel (hydroxypropylcellulose) (HPC).
Where [2] appears, read: dose: 120.0 mg/kg/injection, schedule: Q01DX005 (ip), vehicle: Klucel (hydroxypropylcellulose) (HPC).
Where [3] appears, read: dose: 240.0 mg/kg/injection, schedule: Q01DX005 (ip), vehicle: Klucel (hydroxypropylcellulose) (HPC).
Where [4] appears, read: dose: 50.0 mg/kg/injection, schedule: Q01DX009 (ip), vehicle: Klucel (hydroxypropylcellulose) (HPC).
[5] abbreviates: dose: 100.0 mg/kg/injection, schedule: Q01DX009 (ip), vehicle: Klucel (hydroxypropylcellulose) (HPC).
Where [6] appears, read: dose: 200.0 mg/kg/injection, schedule: Q01DX009 (ip), vehicle: Klucel (hydroxypropylcellulose) (HPC).
[7] abbreviates: dose: 50.0 mg/kg/injection, schedule: Q01DX009 (ip), vehicle: saline with Tween-80.
[8] abbreviates: dose: 100.0 mg/kg/injection, schedule: Q01DX009 (ip), vehicle: saline with Tween-80.
[9] abbreviates: dose: 200.0 mg/kg/injection, schedule: Q01DX009 (ip), vehicle: saline with Tween-80.
The mark [10] stands for this setting: dose: 60.0 mg/kg/injection, schedule: Q01DX005 (ip), vehicle: saline with Tween-80.
Setting [11] is: dose: 60.0 mg/kg/injection, schedule: Q01DX005 (ip), vehicle: saline.
Setting [12] is: dose: 120.0 mg/kg/injection, schedule: Q01DX005 (ip), vehicle: saline with Tween-80.
[13] abbreviates: dose: 240.0 mg/kg/injection, schedule: Q01DX005 (ip), vehicle: saline with Tween-80.
The mark [14] stands for this setting: dose: 120.0 mg/kg/injection, schedule: Q01DX005 (ip), vehicle: saline.
Setting [15] is: dose: 240.0 mg/kg/injection, schedule: Q01DX005 (ip), vehicle: saline.
[16] abbreviates: dose: 50.0 mg/kg/injection, schedule: Q01DX005 (ip), vehicle: saline with Tween-80.
The mark [17] stands for this setting: dose: 200.0 mg/kg/injection, schedule: Q01DX005 (ip), vehicle: saline with Tween-80.

Consider `CSCCC(NCc1c(O)ccc2c(C)cc(=O)oc12)C(=O)O` (centres undefined), for which the T/C runs as follows: under setting [1], 93 % of control; under setting [2], 98 % of control; under setting [3], 99 % of control.
For `O=Cc1ccc(S(=O)(=O)F)cc1`, the T/C was 99 % of control under setting [4], 97 % of control under setting [5] and 93 % of control under setting [6].
With `NNc1ncnc2c1ncn2C1OC(CO)C(O)C1O` (centres undefined), the T/C by setting is: (dose: 19.8 mg/kg/injection, schedule: Q01DX009 (ip), vehicle: saline) 120 % of control; (dose: 30.0 mg/kg/injection, schedule: Q01DX009 (ip), vehicle: saline) 150 % of control; (dose: 45.0 mg/kg/injection, schedule: Q01DX009 (ip), vehicle: saline) 160 % of control; under setting [7], 120 % of control; (dose: 66.0 mg/kg/injection, schedule: Q01DX009 (ip), vehicle: saline with Tween-80) 112 % of control; under setting [8], 163 % of control. Moreover, the T/C runs as follows: (dose: 100.0 mg/kg/injection, schedule: Q04DX003 (ip), vehicle: saline) 118 % of control; (dose: 200.0 mg/kg/injection, schedule: Q04DX003 (ip), vehicle: saline) 86 % of control.
On to `O=C(c1ccccc1)C1(c2ccccc2)CC1`, for which the T/C is 104 % of control under setting [7]; 104 % of control under setting [8]; 104 % of control under setting [9]; 99 % of control (dose: 400.0 mg/kg/injection, schedule: Q01DX009 (ip), vehicle: saline with Tween-80).
For `O=C(CCl)Nc1cccc(CCC(=O)c2ccccc2NC(=O)CCl)c1`, the T/C was 102 % of control (dose: 15.0 mg/kg/injection, schedule: Q01DX005 (ip), vehicle: saline); 106 % of control (dose: 30.0 mg/kg/injection, schedule: Q01DX005 (ip), vehicle: saline); 100 % of control under setting [10]; 100 % of control under setting [11].
Consider `CC(=O)CC(=O)Cc1oc2c(C(C)=O)c(O)c(C)c(O)c2c1C`, for which the T/C was 90 % of control (dose: 25.0 mg/kg/injection, schedule: Q01DX009 (ip), vehicle: saline with Tween-80); 90 % of control under setting [7]; 88 % of control under setting [8]; 90 % of control under setting [9].
Consider `COc1cc[n+]([O-])cc1`, for which the T/C by setting is: (dose: 100.0 mg/kg/injection, schedule: Q01DX009 (ip), vehicle: saline) 95 % of control; (dose: 200.0 mg/kg/injection, schedule: Q01DX009 (ip), vehicle: saline) 90 % of control; (dose: 400.0 mg/kg/injection, schedule: Q01DX009 (ip), vehicle: saline) 95 % of control.
As to `C/C(=N\NC(=S)N1CCSCC1)c1ccccn1`, the T/C reads like this: (dose: 6.25 mg/kg/injection, schedule: Q01DX005 (ip), vehicle: saline with Tween-80) 113 % of control; (dose: 12.5 mg/kg/injection, schedule: Q01DX005 (ip), vehicle: saline with Tween-80) 91 % of control.
In the case of `N#Cc1cc2cccn2c2c1cnn2-c1ccccc1`, the T/C runs as follows: under setting [10], 105 % of control; under setting [12], 98 % of control; under setting [13], 89 % of control.
On to `C=C1CC2(CC(C)CCC2C(C)C)OC1=O` (centres undefined), for which the T/C was 97 % of control (dose: 100.0 mg/kg/injection, schedule: Q01DX001 (ip), vehicle: saline); 100 % of control (dose: 200.0 mg/kg/injection, schedule: Q01DX001 (ip), vehicle: saline); 111 % of control (dose: 400.0 mg/kg/injection, schedule: Q01DX001 (ip), vehicle: saline).
As to `CC(O)C1OC(O)C2OC(C)(C)OC12` (centres undefined), the T/C runs as follows: under setting [11], 98 % of control; under setting [14], 95 % of control; under setting [15], 98 % of control.
For `CN(C)c1ccc2nc3c(cc(Nc4cccc5cccc(Nc6cc7ccccc7c7nc8ccc(N(C)C)cc8[o+]c67)c45)c4ccccc43)[o+]c2c1`, the T/C reads like this: under setting [10], 90 % of control; under setting [12], 100 % of control; under setting [13], 91 % of control.
As to `CC(C)[CH2][Sn](=[O])[c]1ccccc1`, the T/C is, setting by setting: (dose: 0.39 mg/kg/injection, schedule: Q01DX009 (ip), vehicle: saline) 88 % of control; (dose: 0.79 mg/kg/injection, schedule: Q01DX009 (ip), vehicle: saline) 87 % of control; (dose: 1.56 mg/kg/injection, schedule: Q01DX009 (ip), vehicle: saline) 95 % of control.
Take `O=C(CBr)Nc1c(Br)cc(F)cc1Br`: the T/C under setting [7] is 100 % of control, the T/C under setting [8] is 92 % of control and the T/C under setting [9] is 100 % of control.
On to `COC(=O)C(=C\c1nc2ccc([N+](=O)[O-])cc2s1)/C(C(=O)OC)=C1\CCCN1C`, for which the T/C by setting is: (dose: 50.0 mg/kg/injection, schedule: Q01DX005 (ip), vehicle: saline) 100 % of control; (dose: 100.0 mg/kg/injection, schedule: Q01DX005 (ip), vehicle: saline) 97 % of control; (dose: 200.0 mg/kg/injection, schedule: Q01DX005 (ip), vehicle: saline) 97 % of control.
As for `COc1ccc(C(C)c2cc3c(cc2OCCO)OCO3)cc1O` (centres undefined), the T/C is 97 % of control (dose: 50.0 mg/kg/injection, schedule: Q01DX005 (ip), vehicle: distilled water + Tween-80); 99 % of control (dose: 100.0 mg/kg/injection, schedule: Q01DX005 (ip), vehicle: distilled water + Tween-80); 98 % of control (dose: 200.0 mg/kg/injection, schedule: Q01DX005 (ip), vehicle: distilled water + Tween-80).
On to `CC1(C)CC(=O)C=C(NCCCCCCCCNC2=CC(=O)CC(C)(C)C2)C1`, for which the T/C by setting is: under setting [4], 95 % of control; under setting [5], 106 % of control; under setting [6], 100 % of control.
As for `O=C1CCCC2=C1c1cc3c(cc1CCN2)OCO3`, the T/C is, setting by setting: (dose: 25.0 mg/kg/injection, schedule: Q04DX002 (ip), vehicle: saline with Tween-80) 101 % of control; (dose: 50.0 mg/kg/injection, schedule: Q04DX002 (ip), vehicle: saline with Tween-80) 96 % of control; (dose: 100.0 mg/kg/injection, schedule: Q04DX002 (ip), vehicle: saline with Tween-80) 94 % of control and 97 % of control.
`COc1ccc2c(c1)CCC1C2CCC2(C)C1CCC2(C)N(C)C` (centres undefined): the T/C reads like this: (dose: 6.25 mg/kg/injection, schedule: Q01DX005 (ip), vehicle: Klucel (hydroxypropylcellulose) (HPC)) 102 % of control; (dose: 12.5 mg/kg/injection, schedule: Q01DX005 (ip), vehicle: Klucel (hydroxypropylcellulose) (HPC)) 102 % of control.
On to `O=C(N/C(=C\c1ccccc1Cl)c1nc2ccccc2s1)c1ccccc1`, for which the T/C is, setting by setting: under setting [10], 113 % of control; under setting [12], 113 % of control; under setting [13], 102 % of control.
In the case of `CC(C)(O)c1cccs1`, the T/C runs as follows: under setting [11], 100 % of control; under setting [14], 100 % of control; under setting [15], 99 % of control.
Consider `NS(=O)(=O)Oc1ccccc1C(=O)Oc1ccccc1Cl`, for which the T/C reads like this: under setting [1], 99 % of control; under setting [2], 99 % of control; under setting [3], 94 % of control.
As for `O=C1Nc2ccccc2/C1=N/N=C/c1ccco1`, the T/C under setting [4] is 96 % of control, the T/C under setting [5] is 87 % of control and the T/C under setting [6] is 88 % of control.
`NC(=O)c1nnn(Cc2cc(Cl)c(C(=O)c3ccc(Cl)cc3)c(Cl)c2)c1N`: the T/C runs as follows: under setting [1], 103 % of control; under setting [2], 103 % of control; under setting [3], 115 % of control; (dose: 480.0 mg/kg/injection, schedule: Q01DX005 (ip), vehicle: Klucel (hydroxypropylcellulose) (HPC)) 119 % of control.
In the case of `CCSC(C(OC(C)=O)C(OC(C)=O)C(OC(C)=O)C(COC(C)=O)OC(C)=O)n1cnc2c(=S)nc[nH]c21` (centres undefined), the T/C by setting is: under setting [16], 107 % of control; under setting [17], 87 % of control.
`ON(C(=S)c1ccccc1)c1ccccc1`: the T/C is 105 % of control under setting [16]; 102 % of control (dose: 100.0 mg/kg/injection, schedule: Q01DX005 (ip), vehicle: saline with Tween-80); 102 % of control under setting [17].
